From patent US20260285816A1, “Piperazinyl-Modified Quinazolinyl-Aryl Urea Derivative, And Preparation Method And Use Thereof” (Guangxi Normal University, priority 2025, published 2026) come the findings set out here.

The term IC50 denotes the concentration that inhibits the measured activity by half.

Like-named read-outs stand apart in the source and are kept apart here. Where only a bound is given, the exact number is not on record here.

What all share (type): cell-based, human
Test [1] has as its system Hep G2 cells. Kind of test: CCK-8 anti-proliferative assay, Hep G2. The conditions noted are these: Homo sapiens, HepG2, co-incubated 48 h, read-out: Anti-proliferative activity (IC50 ± standard deviation) Hep G2. Put shortly: (§1)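 Growth inhibition was measured by CCK-8 in human cells seeded at 5,000 per well and treated at 70% confluency. Compound exposure spanned 1, 2, 4, 6, 8, 12, 16, 24 and 30 μM for designated durations at 37° C. Percent inhibition against vehicle control at OD 450 nm yielded median inhibitory concentrations.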
(Formazan colour is commonly taken as a measure of viable cells.)

For test [2], the system named is T24 cells. As to the kind of experiment: CCK-8 anti-proliferative assay, T24. Conditions: Homo sapiens, T-24, co-incubated 48 h, read-out: Anti-proliferative activity (IC50 ± standard deviation) T24. The method in brief: as §1
The test system of test [3] is HeLa cells. Kind of test: CCK-8 anti-proliferative assay, HeLa. Conditions: Homo sapiens, HeLa, co-incubated 48 h, read-out: Anti-proliferative activity (IC50 ± standard deviation) HeLa. Put shortly: (§2)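 Anti-proliferative effect is measured by CCK-8 after compound exposure at nine final concentrations between 1 and 30 μM. Treatment starts once seeded cells (5,000/well) reach 70% confluency at 37° C., 5% CO2.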

The test system of test [4] is MCF-7 cells. Kind of test: CCK-8 anti-proliferative assay, MCF-7. Conditions: Homo sapiens, MCF7, co-incubated 48 h, read-out: Anti-proliferative activity (IC50 ± standard deviation) MCF-7. The method in brief:
as §2

In test [5] the test system is BxPC-3 cells. Kind of test: CCK-8 anti-proliferative assay, BxPC-3. The conditions noted are these: Homo sapiens, BXPC-3, co-incubated 48 h, read-out: Anti-proliferative activity (IC50 ± standard deviation) BxPC-3. The method in brief: as §1
In test [6] the test system is 143B cells. Kind of test: CCK-8 anti-proliferative assay, 143B. Conditions: Homo sapiens, 143B, co-incubated 48 h, read-out: Anti-proliferative activity (IC50 ± standard deviation) 143B. Put shortly: as §1
Test [7] has as its system MG-63 cells. As to the kind of experiment: CCK-8 anti-proliferative assay, MG-63. The conditions noted are these: Homo sapiens, MG-63, co-incubated 48 h, read-out: Anti-proliferative activity (IC50 ± standard deviation) MG-63. Put shortly: as §1
Test [8] relates to SK-OV-3 cells. As to the kind of experiment: CCK-8 anti-proliferative assay, SK-OV-3. The conditions noted are these: Homo sapiens, SK-OV-3, co-incubated 48 h, read-out: Anti-proliferative activity (IC50 ± standard deviation) SK-OV-3. The method in brief: as §2
In test [9] the test system is embryonic lung fibroblasts (WI-38). Kind of test: CCK-8 anti-proliferative assay, normal cells WI-38. The conditions noted are these: Homo sapiens, read-out: Anti-proliferative activity (IC50 ± standard deviation) WI-38. The method in brief: as §1
For test [10], the system named is 5637 cells. Kind of test: CCK-8 anti-proliferative assay, 5637. The conditions noted are these: Homo sapiens, co-incubated 48 h, read-out: Anti-proliferative activity (IC50 ± standard deviation) 5637. The method in brief: as §2
The subject of test [11] is immortalized ureteral epithelial cells (SV-HUC-1). Kind of test: CCK-8 anti-proliferative assay, normal cells SV-HUC-1. The conditions noted are these: Homo sapiens, SV-HUC1, normal cells, co-incubated 48 h, read-out: Anti-proliferative activity (IC50 ± standard deviation) SV-HUC-1. The method in brief: as §2
For test [12], the system named is UM-UC-3 cells. Kind of test: CCK-8 anti-proliferative assay, UM-UC-3. Conditions: Homo sapiens, UMUC3, co-incubated 48 h, read-out: Anti-proliferative activity (IC50 ± standard deviation) UM-UC-3. Put shortly:
as §2

For test [13], the system named is A549 cells. As to the kind of experiment: CCK-8 anti-proliferative assay, A549. Conditions: Homo sapiens, A549, co-incubated 48 h, read-out: Anti-proliferative activity (IC50 ± standard deviation) A549. The method in brief:
as §2

The test system of test [14] is PANC-1 cells. As to the kind of experiment: CCK-8 anti-proliferative assay, PANC-1. Conditions: Homo sapiens, PANC-1, co-incubated 48 h, read-out: Anti-proliferative activity (IC50 ± standard deviation) PANC-1. Put shortly: as §1
Test [15] concerns J82 cells. As to the kind of experiment: CCK-8 anti-proliferative assay, J82. The conditions noted are these: Homo sapiens, J82, co-incubated 48 h, read-out: Anti-proliferative activity (IC50 ± standard deviation) J82. The method in brief: as §2
Where [16] appears, read: WI-38, Table 13, co-incubated 48 h.
The mark [17] stands for this setting: WI-38, Table 9, co-incubated 48 h.

With `COc1cc2ncnc(NCc3cccc(NC(=O)Nc4c(Cl)cc(Cl)cc4Cl)c3)c2cc1OCCCCCCN1CCC(CN2CCN(c3ccccn3)CC2)CC1` [Compound 8-2s, N-(3-(((7-methoxy-6-((6-(4-((4-(pyridin-2-yl)piperazin-1-yl)methyl)piperidin-1-yl)hexyl)oxy)quinazolin-4-yl)amino)methyl)phenyl)-N′-(2,4,6-trichlorophenyl)urea], the IC50 in [1] (Table 12) worked out at 4.91 ± 0.55 µM; in test [2] (Table 10), 7.73 ± 0.47 µM; in test [3] (Table 12) it was 7.99 ± 0.68 µM; in test [4] (Table 12), 5.88 ± 0.57 µM; in test [5] (Table 11) it was 9.72 ± 0.95 µM; in test [6] (Table 11), 5.94 ± 0.43 µM. Besides, the IC50 in test [7] (Table 11) was 11 ± 0.97 µM; in test [8] (Table 12), 6.02 ± 0.39 µM; in test [9] (setting [16]) it was 11.5 ± 0.62 µM; in test [10] (Table 10), 4.87 ± 0.29 µM; in test [11] (Table 13), 8.36 ± 1.62 µM; in [12] (Table 10), 10 ± 0.73 µM. The IC50 in test [13] (Table 13) is 7.32 ± 0.85 µM; in test [14] (Table 11) it was 10.4 ± 0.62 µM; in [15] (Table 10) it was 4.62 ± 0.33 µM.
In the case of `COc1ccc(NC(=O)Nc2cccc(CNc3ncnc4cc(OC)c(OCCCCCCN5CCC(CN6CCN(c7ccccn7)CC6)CC5)cc34)c2)cc1` [Compound 8-2l, N-(3-(((7-methoxy-6-((6-(4-((4-(pyridin-2-yl)piperazin-1-yl)methyl)piperidin-1-yl)hexyl)oxy)quinazolin-4-yl)amino)methyl)phenyl)-N′-(4-methoxyphenyl)urea], the IC50 in [1] (Table 12) worked out at 4.74 ± 0.62 µM; in test [2] (Table 10), 6.02 ± 0.46 µM; in test [3] (Table 12), 6.42 ± 0.69 µM; in [4] (Table 12) it was 7.29 ± 0.63 µM; in test [5] (Table 11), 18.9 ± 1.24 µM; in [6] (Table 11) it was 6.75 ± 0.41 µM. In addition, the IC50 in test [7] (Table 11) came to 7.69 ± 0.58 µM; in [8] (Table 12), 11.7 ± 0.88 µM; in test [9] (setting [16]), 13.9 ± 0.71 µM; in test [10] (Table 10), 9.12 ± 0.59 µM; in test [11] (Table 13), 10.9 ± 0.69 µM; in [12] (Table 10), 12 ± 0.94 µM. Also, the IC50 in test [13] (Table 13) was over 30 µM; in test [14] (Table 11), over 30 µM; in test [15] (Table 10), 7.83 ± 0.69 µM.
Take `CCc1ccccc1NC(=O)Nc1cccc(CNc2ncnc3cc(OC)c(OCCCCCCN4CCC(CN5CCN(c6ccccn6)CC5)CC4)cc23)c1` [Compound 8-2g, N-(3-(((7-methoxy-6-((6-(4-((4-(pyridin-2-yl)piperazin-1-yl)methyl)piperidin-1-yl)hexyl)oxy)quinazolin-4-yl)amino)methyl)phenyl)-N′-(2-ethylphenyl)urea]: the IC50 in test [1] (Table 12) stood at 6.38 ± 0.44 µM; in test [2] (Table 10), 7.04 ± 0.55 µM; in test [3] (Table 12), 5.62 ± 0.44 µM; in test [4] (Table 12), 7.62 ± 0.77 µM; in [5] (Table 11), 8.56 ± 0.72 µM; in [6] (Table 11), 5.37 ± 0.29 µM. For the same compound, the IC50 in test [7] (Table 11) is 6.04 ± 0.65 µM; in test [8] (Table 12), 8.96 ± 0.83 µM; in test [9] (setting [16]), 9.39 ± 0.41 µM; in test [10] (Table 10), 6.04 ± 0.43 µM; in test [11] (Table 13), 7.42 ± 0.35 µM; in [12] (Table 10), 11.6 ± 0.62 µM. Further, the IC50 in [13] (Table 13) was 6.59 ± 0.64 µM; in test [14] (Table 11), 8.79 ± 0.98 µM; in test [15] (Table 10), 5.76 ± 0.31 µM.
Turning to `COc1cc2ncnc(NCc3cccc(NC(=O)Nc4ccc(C(C)C)cc4)c3)c2cc1OCCCCCCN1CCN(CCN2CCOCC2)CC1` [Compound 8-1i, N-(3-(((7-methoxy-6-((6-(4-(2-morpholinoethyl)piperazin-1-yl)hexyl)oxy)quinazolin-4-yl)amino)methyl)phenyl)-N′-(4-isopropylphenyl)urea], the IC50 in [1] (Table 8) came to 10.6 ± 0.89 µM; in [2] (Table 6), 16.3 ± 0.81 µM; in [3] (Table 8) it was 14.1 ± 0.89 µM; in test [4] (Table 8) it was 11.5 ± 0.76 µM; in test [5] (Table 7), 13.3 ± 1.05 µM; in test [6] (Table 7), 9.31 ± 0.97 µM. Also, the IC50 was 11.1 ± 0.95 µM in test [7] (Table 7); 7.68 ± 0.55 µM in test [8] (Table 9); 20.3 ± 1.63 µM in test [9] (setting [17]); 10.3 ± 0.97 µM in test [10] (Table 6); 19.3 ± 1.39 µM in test [11] (Table 9); 10 ± 0.52 µM in test [12] (Table 6). Further, the figures for the IC50 in test [13] (Table 8), in test [14] (Table 7) and in [15] (Table 6) were 16 ± 0.64 µM, 14.4 ± 0.67 µM and 22.4 ± 1.82 µM, respectively.
With `COc1cc2ncnc(NCc3cccc(NC(=O)Nc4ccc(F)cc4)c3)c2cc1OCCCCCCN1CCN(CCN2CCOCC2)CC1` [Compound 8-1l, N-(3-(((7-methoxy-6-((6-(4-(2-morpholinoethyl)piperazin-1-yl)hexyl)oxy)quinazolin-4-yl)amino)methyl)phenyl)-N′-(4-fluorophenyl)urea], the IC50 was determined as 7.29 ± 0.54 µM in test [1] (Table 8); 10.4 ± 0.92 µM in [2] (Table 6); 21.3 ± 1.24 µM in [3] (Table 8); 15.2 ± 0.93 µM in test [4] (Table 8); 13 ± 0.97 µM in test [5] (Table 7); 9.03 ± 0.61 µM in test [6] (Table 7). Moreover, the concentration for half-maximal inhibition (IC50) in test [7] (Table 7) came out at 7.03 ± 0.48 µM; in test [8] (Table 9), 7.72 ± 0.59 µM; in test [9] (setting [17]), 22.8 ± 0.94 µM; in test [10] (Table 6), 15.8 ± 0.95 µM; in [11] (Table 9), 15.9 ± 0.86 µM; in test [12] (Table 6) it was 16.8 ± 0.88 µM. In addition, the values for the IC50 in test [13] (Table 8), in test [14] (Table 7) and in test [15] (Table 6) were 21.4 ± 1.96 µM, over 30 µM and 6.85 ± 0.57 µM, respectively.
On to `COc1cc2ncnc(NCc3cccc(NC(=O)Nc4cc(C(F)(F)F)cc(C(F)(F)F)c4)c3)c2cc1OCCCCCCN1CCN(CCN2CCOCC2)CC1` [Compound 8-1s, N-(3-(((7-methoxy-6-((6-(4-(2-morpholinoethyl)piperazin-1-yl)hexyl)oxy)quinazolin-4-yl)amino)methyl)phenyl)-N′-(3,5-bis(trifluoromethyl)phenyl)urea], for which the IC50 in [1] (Table 8) amounted to 4.55 ± 0.47 µM; in [2] (Table 6), 6.95 ± 0.51 µM; in test [3] (Table 8), 6.81 ± 0.45 µM; in [4] (Table 8), 10.3 ± 0.68 µM; in test [5] (Table 7), 7.31 ± 0.76 µM; in [6] (Table 7), 4.95 ± 0.69 µM. In addition, the IC50 in test [7] (Table 7) is 7.17 ± 0.52 µM; in test [8] (Table 9), 7.29 ± 0.66 µM; in test [9] (setting [17]), 7.71 ± 0.54 µM; in test [10] (Table 6), 5.93 ± 0.44 µM; in [11] (Table 9), 7.31 ± 0.35 µM; in [12] (Table 6), 6.72 ± 0.53 µM. The values for the IC50 in test [13] (Table 8), in [14] (Table 7) and in [15] (Table 6) were 12.6 ± 0.48 µM, 12.7 ± 0.71 µM and 5.63 ± 0.54 µM, respectively.
